Laboratory results: patent publication US20260041620A1, “NOVEL AMINO ACID BASED SALTS, COMPOSITIONS AND METHODS FOR TREATING SKIN AND IMPROVING SKIN REJUVENATION AND LONGEVITY” (Sytheon Ltd, priority 2023, published 2026)

What was measured:
[1] = tested on: EpiDermFT (Mattek full thickness) dermal substitutes; conditions: versus control
Procedure: The experiments were performed using EpiDermFT (Mattek full thickness) dermal substitutes. Sequencing data was generated by Azenta Life Sciences (HiSeq 2×150 bp) and analyses performed using raw FastQ files provided by Azenta.

Type I Collagen = Type I Collagen Assay (ELISA, fibroblast culture medium); assay type: cell-based, human; conditions: for Type I Collagen C-Peptide: 48 hours, untreated 1255 ± 83
Procedure: In the study, human neonatal fibroblasts were seeded into the individual wells of a 48-well plate in 0.25 ml of Fibroblasts Growth Media (FGM) and incubated overnight at 37±2° C. and a 5±1% CO2 atmosphere. On the following day the media was removed via aspiration to eliminate non-adherent cells and replaced with 0.5 ml of fresh FGM. The cells were grown until confluent, with a media change every 48 to 72 hours. Upon reaching confluency the cells were treated for 24 hours with Dulbecco's Modified Eagle's medium (DMED) supplemented with 1.5% Fetal Bovine Serum (FBS) to wash out any effects from the growth factors included in the normal culture media. After this 24-hour wash out period the cells were treated with the test materials at the specified concentrations dissolved in FGM with 1.5% FBS. Sodium ascorbate (10 ug/ml) was used as a positive control. Untreated cells (negative controls) only received DMEM with […], The cells were incubated for 48 hours and at the end of the incubation period, cell culture medium was collected and either stored frozen (−75 C) or assayed immediately. Materials were tested in triplicate.
A series of type I collagen peptide standards was prepared ranging from 0 ng/ml to 640 ng/ml. An ELISA microplate was prepared by removing any unneeded strips from the plate frame followed by the addition of 100 μl of peroxidase labelled anti-procollagen type I-C peptide antibody to each well used in the assay. A 20 μl sample of each of the collected tissue culture media or a standard was then added to appropriate wells and the microplate covered and allowed to incubate for 3±0.25 hours at 37 C. Following incubation, the wells were aspirated and washed three times with 400 μl of wash buffer. After the last wash was remove 100 μl of peroxidase substrate solution (hydrogen peroxide+tetramethylbenzidine as a chromogen) was added to each well and the plate incubated for 15±4 minutes at room temperature. Following this incubation, 100 μl of stop solution (1 N sulfuric acid) was added to each well and the plate read using a microplate reader at 450 nm.
To quantify the amount of each substance present, a standard curve was generated using known concentrations of each substance. A regression analysis was performed to establish the line that best fit those data points. Absorbance values for the test materials and untreated samples were used to estimate the amount of each substance present in each sample. Treatment means were compared using ANOVA, with an […] per treatment. Statistical significance was set at p≤0.05.

COX-2 = molecular target: T1, COX-2 (Homo sapiens, UniProt P35354); assay: biochemical
T1 sequence (P35354 18-604): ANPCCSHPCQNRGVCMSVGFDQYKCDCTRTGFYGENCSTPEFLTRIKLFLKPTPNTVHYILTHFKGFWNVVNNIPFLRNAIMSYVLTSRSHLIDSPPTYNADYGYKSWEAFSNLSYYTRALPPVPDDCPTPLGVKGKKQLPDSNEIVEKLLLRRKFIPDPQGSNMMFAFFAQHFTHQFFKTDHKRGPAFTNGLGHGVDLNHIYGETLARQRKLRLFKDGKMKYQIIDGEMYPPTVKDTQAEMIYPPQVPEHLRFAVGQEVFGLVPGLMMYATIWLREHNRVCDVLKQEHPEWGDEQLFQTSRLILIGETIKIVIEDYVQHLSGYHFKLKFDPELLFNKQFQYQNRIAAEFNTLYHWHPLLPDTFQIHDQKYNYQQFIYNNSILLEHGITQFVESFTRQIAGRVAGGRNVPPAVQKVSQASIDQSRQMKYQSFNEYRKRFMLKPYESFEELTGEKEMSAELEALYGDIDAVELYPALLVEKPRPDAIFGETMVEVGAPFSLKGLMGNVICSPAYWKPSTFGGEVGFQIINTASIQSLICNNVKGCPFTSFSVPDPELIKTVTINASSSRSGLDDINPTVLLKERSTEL
Procedure: A 0.1 gram sample of each test material was dissolved in 1 mL propanediol make a stock solution, each of which was subject to 1 to 2 serial dilutions using buffer for use in determining the IC50 Testing and analysis was performed in accordance with the protocol of the COX-2 Kt (Cayman Catalog #701080) (Cayman catalog #62160).

HDAC7 = molecular target: T2, HDAC7 (Homo sapiens, UniProt Q8WUI4); conditions: reported, abcam; cited from earlier work
T2 sequence (Q8WUI4 1-952): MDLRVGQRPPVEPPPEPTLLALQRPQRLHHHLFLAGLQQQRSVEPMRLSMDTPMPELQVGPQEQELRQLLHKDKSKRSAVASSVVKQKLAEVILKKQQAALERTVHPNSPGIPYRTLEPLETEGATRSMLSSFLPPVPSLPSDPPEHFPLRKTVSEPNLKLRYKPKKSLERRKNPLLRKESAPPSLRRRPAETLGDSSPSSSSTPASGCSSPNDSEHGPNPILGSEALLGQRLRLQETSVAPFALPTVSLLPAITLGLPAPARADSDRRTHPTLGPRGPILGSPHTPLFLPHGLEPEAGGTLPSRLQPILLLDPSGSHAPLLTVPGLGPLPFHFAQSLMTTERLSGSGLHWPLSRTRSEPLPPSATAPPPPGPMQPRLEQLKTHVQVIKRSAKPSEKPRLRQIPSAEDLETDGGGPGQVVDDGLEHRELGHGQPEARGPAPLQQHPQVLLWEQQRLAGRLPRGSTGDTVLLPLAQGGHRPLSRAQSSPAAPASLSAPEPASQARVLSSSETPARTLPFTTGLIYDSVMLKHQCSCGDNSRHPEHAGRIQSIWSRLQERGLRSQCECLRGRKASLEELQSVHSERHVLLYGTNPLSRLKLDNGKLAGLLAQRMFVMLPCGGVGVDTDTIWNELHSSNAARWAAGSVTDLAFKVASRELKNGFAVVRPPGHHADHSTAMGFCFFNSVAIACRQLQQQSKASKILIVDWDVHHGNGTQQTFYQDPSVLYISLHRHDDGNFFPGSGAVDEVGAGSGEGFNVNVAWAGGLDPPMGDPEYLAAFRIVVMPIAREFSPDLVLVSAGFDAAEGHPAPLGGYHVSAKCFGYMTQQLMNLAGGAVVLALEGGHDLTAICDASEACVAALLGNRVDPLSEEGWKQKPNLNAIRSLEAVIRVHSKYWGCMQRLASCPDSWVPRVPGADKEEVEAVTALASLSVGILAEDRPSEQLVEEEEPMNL

| Structure (SMILES) | expression of FABP3 [1] | expression of late differentiation marker gene FLG [1] | expression of late differentiation marker gene IVL [1] | expression of late differentiation marker gene LOR [1] | expression of late differentiation marker gene SPINK5 [1] | expression of late differentiation marker gene TGM1 [1] | Type I Collagen C-Peptide (Type I Collagen; 10 μg/ml) | Type I Collagen C-Peptide (Type I Collagen; 30 μg/ml) | also measured |
| --- | --- | --- | --- | --- | --- | --- | --- | --- | --- |
| CCCC(=O)NCCCC[C@H](NC(=O)CCC)C(=O)[O-].CCCC(=O)NCCCC[C@H](NC(=O)CCC)C(=O)[O-].[Zn+2] [Zn di-(di-n-butyryl lysinate), Zinc di-(di-n-butyryl lysinate)] | repressed | increased expression | increased expression | increased expression | increased expression | increased expression | 1328 ± 48 ng/mL | 1958 ± 125 ng/mL | activity of S100 calcium binding protein P (S100P) [1]: strongly increased; activity of late cornified envelope 3D (LCE3D) [1]: strongly increased; activity of late cornified envelope 3E (LCE3E) [1]: strongly increased; activity of small protein reach repeat (SPRR28) [1]: strongly increased; expression of early differentiation marker gene DSC1 [1]: increasing the expression; expression of early differentiation marker gene KRT1 [1]: increasing the expression; expression of early differentiation marker gene KRT10 [1]: increasing the expression; Type I Collagen C-Peptide (Type I Collagen; 20 μg/ml): 1541 ± 94 ng/mL; boost of Collagen I vs control (Type I Collagen; 30 μg/ml): ~50% |
| CCCC(=O)[O-].[Na+] [Sodium butyrate, reference compound] |  |  |  |  |  |  | 1445 ± 168 ng/mL | 1262 ± 95 ng/mL | IC50 (COX-2): 2670 µM; IC50 (HDAC7): 300 µM; Type I Collagen C-Peptide (Type I Collagen; 60 μg/ml): 1196 ± 175 ng/mL; Type I Collagen C-Peptide (Type I Collagen; 100 μg/ml): 1277 ± 216 ng/mL; Collagen I boosting activity (Type I Collagen; concentrations as high as 100 μg/ml): didn't show any |
| CCCC(=O)NCCCCC(NC(=O)CCC)C(=O)[O-].CCCC(=O)NCCCCC(NC(=O)CCC)C(=O)[O-].[Ca+2] (centres unmarked) [Ca di-(di-n-butyryl lysinate), calcium di-(di-n-butyryl lysinate)] | repressed | increased expression | increased expression | increased expression | increased expression | increased expression |  |  | activity of late cornified envelop (LCE2D) [1]: strongly increased; activity of late cornified envelope (LCE3A) [1]: strongly increased |
